According to patent US10106501B2, “Nuclear receptor modulators” (AbbVie Inc., priority 2015, dated 2018):
Like-named read-outs stand apart in the source and are kept apart here.

Target: T1, chimeric human RORγ-Gal4 receptor (Homo sapiens, UniProt P51449)
T1 sequence (P51449 269-508 limits assumed): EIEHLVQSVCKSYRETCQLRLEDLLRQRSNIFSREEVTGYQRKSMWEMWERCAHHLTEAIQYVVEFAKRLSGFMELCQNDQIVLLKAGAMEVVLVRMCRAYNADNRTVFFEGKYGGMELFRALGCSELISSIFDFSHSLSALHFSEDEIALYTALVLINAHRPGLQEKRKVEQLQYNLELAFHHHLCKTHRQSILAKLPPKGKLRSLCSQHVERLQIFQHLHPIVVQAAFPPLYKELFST
Assay: transient transactivation assay (RORγ-Gal4 luciferase reporter)
Assay type: cell-based
Conditions: read-out: IC50

[1] = Cos-7 cells transfected with RORγ-Gal4 and 5Gal4 pGL3 TK Luc reporter, overnight incubation, T0901317 at 10^-5 M as reference

## Cc1cc(C(F)(F)F)nc2c1cc(C(=O)c1c(Cl)ccc(C(=O)N3CC[C@@H](C(=O)O)[C@@H](C)C3)c1Cl)n2C [Example FX, (3R,4R)-1-(2,4-dichloro-3-(1,4-dimethyl-6-(trifluoromethyl)-1H-pyrrolo[2,3-b]pyridine-2-carbonyl)benzoyl)-3-methylpiperidine-4-carboxylic acid]
[1]
  IC50: 0.1 to 0.5 µM

## Cc1cc(C(F)(F)F)nc2c1cc(C(=O)c1c(Cl)ccc(C(=O)N3CCC(O)CC3)c1Cl)n2C [Example FZ, (2,4-dichloro-3-(1,4-dimethyl-6-(trifluoromethyl)-1H-pyrrolo[2,3-b]pyridine-2-carbonyl)phenyl)(4-hydroxypiperidin-1-yl)methanone]
[1]
  IC50: < 0.1 µM

## Cc1ccc(C(=O)N2CCOCC2)c(C)c1C(=O)c1cc2c(C)cc(C(F)(F)F)cc2n1C [Example G1, (2,6-dimethyl-3-(morpholine-4-carbonyl)phenyl)(1,4-dimethyl-6-(trifluoromethyl)-1H-indol-2-yl)methanone]
[1]
  IC50: 0.1 to 0.5 µM

## Cc1cc(C(F)(F)F)nc2c1cc(C(=O)c1c(Cl)ccc(C(=O)N3CC[C@@H](CC(=O)O)[C@@H](C)C3)c1Cl)n2C.Cc1cc(C(F)(F)F)nc2c1cc(C(=O)c1c(Cl)ccc(C(=O)N3CC[C@@H](CC(=O)O)[C@H](C)C3)c1Cl)n2C.Cc1cc(C(F)(F)F)nc2c1cc(C(=O)c1c(Cl)ccc(C(=O)N3CC[C@H](CC(=O)O)[C@@H](C)C3)c1Cl)n2C.Cc1cc(C(F)(F)F)nc2c1cc(C(=O)c1c(Cl)ccc(C(=O)N3CC[C@H](CC(=O)O)[C@H](C)C3)c1Cl)n2C [Example GA]
  IC50: < 0.1 µM

## Cc1cc(C(F)(F)F)nc2c1cc(C(=O)c1c(Cl)ccc(C(=O)N3CCC(S(C)(=O)=O)CC3)c1Cl)n2C [Example GB, (2,4-dichloro-3-(1,4-dimethyl-6-(trifluoromethyl)-1H-pyrrolo[2,3-b]pyridine-2-carbonyl)phenyl)(4-(methylsulfonyl)piperidin-1-yl)methanone]
[1]
  IC50: < 0.1 µM

## Cc1cc(C(F)(F)F)nc2c1cc(Cc1c(Cl)ncc(C(=O)N3CC[C@@H](CC(=O)O)[C@@H](C)C3)c1Cl)n2C [Example GC, 2-((3R,4S)-1-(4,6-dichloro-5-((1,4-dimethyl-6-(trifluoromethyl)-1H-pyrrolo[2,3-b]pyridin-2-yl)methyl)nicotinoyl)-3-methylpiperidin-4-yl)acetic acid]
[1]
  IC50: < 0.1 µM

## Cc1cc(C(F)(F)F)nc2c1cc(Cc1c(Cl)ncc(C(=O)N3CCN(S(C)(=O)=O)CC3)c1Cl)n2C [Example GE, (4,6-dichloro-5-((1,4-dimethyl-6-(trifluoromethyl)-1H-pyrrolo[2,3-b]pyridin-2-yl)methyl)pyridin-3-yl)(4-(methylsulfonyl)piperazin-1-yl)methanone]
[1]
  IC50: 0.1 to 0.5 µM

## Cc1cc(C(F)(F)F)nc2c1cc(Cc1c(Cl)ncc(C(=O)N3CCOCC3)c1Cl)n2C [Example GF, (4,6-dichloro-5-((1,4-dimethyl-6-(trifluoromethyl)-1H-pyrrolo[2,3-b]pyridin-2-yl)methyl)pyridin-3-yl)(morpholino)methanone]
[1]
  IC50: < 0.1 µM

## Cc1cc(C(F)(F)F)nc2c1cc(Cc1c(Cl)ncc(C(=O)N3CCC(S(C)(=O)=O)CC3)c1Cl)n2C [Example GG, (4,6-dichloro-5-((1,4-dimethyl-6-(trifluoromethyl)-1H-pyrrolo[2,3-b]pyridin-2-yl)methyl)pyridin-3-yl)(4-(methylsulfonyl)piperidin-1-yl)methanone]
[1]
  IC50: < 0.1 µM

## Cc1cc(C(F)(F)F)nc2c1cc(Cc1c(Cl)cnc(C(=O)N3CCOCC3)c1Cl)n2C [Example GH, (3,5-dichloro-4-((1,4-dimethyl-6-(trifluoromethyl)-1H-pyrrolo[2,3-b]pyridin-2-yl)methyl)pyridin-2-yl)(morpholino)methanone]
  IC50: < 0.1 µM

## Cn1c(C(=O)c2c(Cl)ccc(C(=O)N3CCC(CC(=O)O)CC3)c2Cl)cc2ccc(OC(F)(F)F)cc21 [Example GI, 2-(1-(2,4-dichloro-3-(1-methyl-6-(trifluoromethoxy)-1H-indole-2-carbonyl)benzoyl)piperidin-4-yl)acetic acid]
[1]
  IC50: < 0.1 µM

## Cn1c(Cc2c(Cl)cnc(C(=O)N3CCC(CC(=O)O)CC3)c2Cl)cc2ccc(OC(F)(F)F)cc21 [Example GK, 2-(1-(3,5-dichloro-4-((1-methyl-6-(trifluoromethoxy)-1H-indol-2-yl)methyl)picolinoyl)piperidin-4-yl)acetic acid]
[1]
  IC50: < 0.1 µM

## Cn1c(Cc2c(Cl)ncc(C(=O)N3CCC(CC(=O)O)CC3)c2Cl)cc2c(F)cc(C3CC3)cc21 [Example GN, 2-[1-[4,6-dichloro-5-[(6-cyclopropyl-4-fluoro-1-methyl-1H-indol-2-yl)methyl]pyridine-3-carbonyl]-4-piperidyl]acetic acid]
[1]
  IC50: < 0.1 µM

## COC(c1c(C)ccc(C(=O)N2CCOCC2)c1C)c1cc2c(C)cc(C(F)(F)F)cc2n1C (centres unmarked) [Example K1, (3-((1,4-dimethyl-6-(trifluoromethyl)-1H-indol-2-yl)(methoxy)methyl)-2,4-dimethylphenyl)(morpholino)methanone]
[1]
  IC50: 0.1 to 0.5 µM

## Cn1c(Cc2c(Cl)ccc(C(=O)N3CCC(CO)CC3)c2Cl)cc2ccc(C(F)(F)F)cc21 [Example L-2]
[1]
  IC50: 0.1 to 0.5 µM

## CC(=O)N1CCN(C(=O)c2ccc(Cl)c(Cc3cc4ccc(C(F)(F)F)cc4n3C)c2Cl)CC1 [Example L-3]
[1]
  IC50: 0.1 to 0.5 µM

## Cn1c(Cc2c(Cl)ccc(C(=O)N3CC[C@@H](F)[C@H](O)C3)c2Cl)cc2ccc(C(F)(F)F)cc21 [Example L-5]
[1]
  IC50: 0.5 to 1 µM

## Cc1cc(C(F)(F)F)cc2c1CC(Cc1c(Cl)ccc(C(=O)N3CCOCC3)c1Cl)N2C (centres unmarked) [Example Q, (2,4-dichloro-3-((1,4-dimethyl-6-(trifluoromethyl)indolin-2-yl)methyl)phenyl)(morpholino)methanone]
[1]
  IC50: 0.1 to 0.5 µM

## Cn1c(Cc2c(Cl)ccc(C(=O)N3CCC(CC(=O)O)CC3)c2Cl)cc2c(Cl)cc(C#N)cc21 [Example R, 2-(1-(2,4-dichloro-3-((4-chloro-6-cyano-1-methyl-1H-indol-2-yl)methyl)benzoyl)piperidin-4-yl)acetic acid]
[1]
  IC50: < 0.1 µM

## Cc1cc(C(F)(F)F)cc2c1cc(Cc1c(Cl)ccc(C(=O)N3CCN(C4CC(C(=O)O)C4)CC3)c1Cl)n2C (centres unmarked) [Example S, 3-(4-(2,4-dichloro-3-((1,4-dimethyl-6-(trifluoromethyl)-1H-indol-2-yl)methyl)benzoyl)piperazin-1-yl)cyclobutanecarboxylic acid]
[1]
  IC50: < 0.1 µM

## Cc1cc(C(F)(F)F)cc2c1cc(Cc1c(Cl)ccc(C(=O)N3CCN(C(C)(C)C(=O)O)CC3)c1Cl)n2C [Example T, 2-(4-(2,4-dichloro-3-((1,4-dimethyl-6-(trifluoromethyl)-1H-indol-2-yl)methyl)benzoyl)piperazin-1-yl)-2-methylpropanoic acid]
[1]
  IC50: 0.1 to 0.5 µM

## Cc1cc(C(F)(F)F)cc2c1cc(Cc1c(Cl)ccc(C(=O)N3CCN(C(C)C(=O)O)CC3)c1Cl)n2C (centres unmarked) [Example U, 2-(4-(2,4-dichloro-3-((1,4-dimethyl-6-(trifluoromethyl)-1H-indol-2-yl)methyl)benzoyl)piperazin-1-yl)propanoic acid]
[1]
  IC50: < 0.1 µM

## Cc1cc(C(F)(F)F)cc2c1c(Cc1c(Cl)ccc(C(=O)N3CCC(CC(=O)O)CC3)c1Cl)cn2C [F, 2-(1-(2,4-dichloro-3-((1,4-dimethyl-6-(trifluoromethyl)-1H-indol-3-yl)methyl)benzoyl)piperidin-4-yl)acetic acid]
[1]
  IC50: < 0.1 µM
